According to patent US6368788B1 (priority 1987, dated 2002):
Read-outs that look alike come from different tables or passages of the source.

What was measured:
[1] = test system: respiratory viral infections; assay: Nose, ear and throat infections (acute respiratory disease); set-up: species or system human; settings: in vivo
Procedure: One hundred eighty six subjects (186) with diagnosed acute respiratory disease, including upper airway diseases and viral infections, were treated with L-Glu-L-Trp. A control group consisted of 87 untreated subjects. L-Glu-L-Trp was administered daily im or intranasally at a dosage of 100 μg on each of 3-7 consecutive days. […] Secondary infectious complications were diminished in the treated individuals, and the length of time that medical follow-up was required was also diminished.

[2] = test system: antibiotic-resistant Staphylococci; assay: Chronic skin diseases caused by antibiotic-resistant Staphylococci (Protocol A2); type: in vivo, human
Wound healing = assay: Wound healing; set-up: species or system human; settings: in vivo
Procedure: L-Glu-L-Trp was administered to 37 patients with wounds of various origins, types and localizations. Patients in the control group (24) received conventional treatments. L-Glu-L-Trp was administered daily im (or topically) on each of 10 consecutive days. The im dose was 100 μg.

Plasmodium falciparum = assay: Relapsing tropical malaria; type: in vivo, human; set-up: IgG / IgA / IgM: unit not given here
[3] = Chronic primary gastritis and gastro-duodenitis; type: in vivo, human
Description: Twenty two patients (all men aged 18-30 years) suffering from chronic primary gastritis and gastro-duodenitis were entered into the trial. Diagnosis was based on physical examination, and clinical and laboratory investigations including roentgenoscopy and endoscopic examination of the stomach and duodenum. Patient entry criteria was further conditioned on the results of laboratory tests for i) pre-treatment immune indices (i.e., numbers of lymphocytes, T-, and B-lymphocytes, etc.; TABLE 46) and ii) the in vitro sheep red blood cell rosette forming response of T-lymphocytes to L-Glu-L-Trp, (i.e., whether in vitro incubation of patient peripheral blood lymphocytes with L-Glu-L-Trp increased the percentage of E-RFC). […] These twelve patients were entered into the trial.
For determining normal values, the control group consisted of 28 normal healthy volunteers aged 17-23.
Patients received L-Glu-L-Trp im daily at a dosage of 100 μg for 5 days in combination with their conventional ongoing treatment.

Adult thymectomy = assay: Adult thymectomy; set-up: species or system human; settings: in vivo
Procedure: A total of 12 thymectomized patients were treated with L-Glu-L-Trp. Prior to therapy, these individuals had experienced frequent serious infections including upper respiratory infections. L-Glu-L-Trp was administered in a single dose of 100 μg daily for 10 days and repeated every 4-6 months.

[4] = test system: antibody-producing cells in spleen; assay: Antibody plaque forming cell response to sheep red blood cells (Jerne); type: in vivo, (CBAxC57B1/6) F1 mice; settings: for PFC/10^6 splenocytes / PFC/Spleen / Spleen weight/Body weight / Splenocytes per Spleen: s-rbc immunized mice, day 5
[5] = malaria, after L-Glu-L-Trp Therapy (n = 33)
[6] = After L-Glu-L-Trp Combination Therapy
[7] = psoriasis Group 1, after L-Glu-L-Trp Therapy (n = 30)
[8] = psoriasis, after Combination L-Glu-L-Trp Therapy (n = 30)
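Throughout, for Patients with improvement: psoriasis patients, 30 per group, with disease activity tracked through laboratory and clinical measures, set against a group receiving traditional therapy alone.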
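Throughout, for Patients with significant improvement: psoriasis patients, 30 per group, with disease activity tracked through laboratory and clinical measures, set against a group receiving traditional therapy alone.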
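Throughout, for Patients with total recovery: psoriasis patients, 30 per group, with disease activity tracked through laboratory and clinical measures, set against a group receiving traditional therapy alone.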
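Throughout, for Shorter length of hospital stay vs Group 2: psoriasis patients, 30 per group, with disease activity tracked through laboratory and clinical measures, set against a group receiving traditional therapy alone.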

L-Glu-L-Trp
Clinical outcome [1]: milder course of respiratory viral infections | Clinical outcome ([2]; L-Glu-L-Trp then individualized antibiotic): complete recovery in all patients | Increase in antibiotic-sensitivity of the patients' Staphylococci ([2]; patients with secondary T-immunodeficiency): more than 100 fold | Clinical outcome (Wound healing): accelerated wound healing | Clinical outcome (Plasmodium falciparum; in vivo): decreased incidence of disease relapses | FDP and ATIII levels (Plasmodium falciparum; in vivo): the levels of FDP decreased and ATIII increased | PBL and T- and B-lymphocyte counts (Plasmodium falciparum; in vivo): increased PBL and T- and B-lymphocyte counts to normal or supra-normal values | ATIII (%) (Plasmodium falciparum; [5]): 98 ± 1.38% | B-Lymphocytes (Plasmodium falciparum; [5]): 0.53 ± 0.02 ×10^9/L | B-Lymphocytes % Normal Value (Plasmodium falciparum; [5]): (115%) | Clotting time (whole blood) (Plasmodium falciparum; [5]): 141 ± 2.4^ | FDP (Plasmodium falciparum; [5]): 23 ± 1.8 µg/mL | Fibrinogen Concentration (Plasmodium falciparum; [5]): 3.4 ± 0.1 g/L | Hagemann factor dependent fibrinolysis (Plasmodium falciparum; [5]): 25 ± 2.58 | IgA (Plasmodium falciparum; [5]): 138 ± 6.0 | IgA % Normal Value (Plasmodium falciparum; [5]): (140%) | IgG (Plasmodium falciparum; [5]): 187 ± 1.9 | IgG % Normal Value (Plasmodium falciparum; [5]): (140%) | IgM (Plasmodium falciparum; [5]): 193 ± 9.0 | IgM % Normal Value (Plasmodium falciparum; [5]): (152%) | Kaolin clotting time (Plasmodium falciparum; [5]): 58 ± 0.3 | Leukocytes (Plasmodium falciparum; [5]): 9.0 ± 0.14 ×10^9/L | Leukocytes % Normal Value (Plasmodium falciparum; [5]): (155%) | Lymphocytes (Plasmodium falciparum; [5]): 2.57 ± 0.09 ×10^9/L | Lymphocytes % Normal Value (Plasmodium falciparum; [5]): (148%) | PTT (Plasmodium falciparum; [5]): 23 ± 0.2 | T-Lymphocytes (Plasmodium falciparum; [5]): 0.94 ± 0.06 ×10^9/L | T-Lymphocytes % Normal Value (Plasmodium falciparum; [5]): (106%) | Thrombotest (Plasmodium falciparum; [5]): 33 ± 0.5 | Total Fibrinogen (Plasmodium falciparum; [5]): 200 ± 2.7^ | B-Lymphocytes [3, 6]: 0.14 ± 0.02 ×10^9/L | B-Lymphocytes % Normal Value [3, 6]: (97%) | B-Lymphocytes (%) [3, 6]: 7.2 ± 1.5% | Null Lymphocytes [3, 6]: 0.9 ± 0.05 ×10^9/L | Null Lymphocytes % Normal Value [3, 6]: (145%) | Null Lymphocytes (%) [3, 6]: 37.3 ± 2.0 % | T-Lymphocytes [3, 6]: 1.04 ± 0.04 ×10^9/L | T-Lymphocytes % Normal Value [3, 6]: (96%) | T-Lymphocytes (%) [3, 6]: 55.4 ± 2.1 % | Clinical outcome ([3]; in vivo): more rapid recovery | Clinical outcome (Adult thymectomy): reduction of infectious disorders | Increase of frequency of PFC per 10^6 splenocytes ([4]; 1 μg/kg): 2.8 fold | Increase of number of PFC in spleen over saline control ([4]; 1 μg/kg): 2.7 fold | PFCs per spleen vs saline control ([4]; 10 μg/kg): 1.8 fold | PFCs per spleen vs saline control ([4]; 100 μg/kg): 1.6 fold | PFC/10^6 splenocytes ([4]; 1 μg/kg): 69.2 ± 11.3 | PFC/Spleen ([4]; 1 μg/kg): 11722 ± 2005 | Spleen weight/Body weight ([4]; 1 μg/kg): 0.42 ± 0.01 | Splenocytes per Spleen ([4]; 1 μg/kg): 168.6 ± 3.6 ×10^6 | PFC/10^6 splenocytes ([4]; 10 μg/kg): 48.8 ± 9 | PFC/Spleen ([4]; 10 μg/kg): 7854 ± 1631 | Spleen weight/Body weight ([4]; 10 μg/kg): 0.43 ± 0.01 | Splenocytes per Spleen ([4]; 10 μg/kg): 159 ± 8.5 ×10^6 | PFC/10^6 splenocytes ([4]; 100 μg/kg): 41.7 ± 6 | PFC/Spleen ([4]; 100 μg/kg): 6731 ± 1027 | Spleen weight/Body weight ([4]; 100 μg/kg): 0.44 ± 0.02 | Splenocytes per Spleen ([4]; 100 μg/kg): 162.6 ± 6 ×10^6 | Patients with improvement (10 days): 7% | Patients with significant improvement (10 days): 60% | Patients with total recovery (10 days): 33% | Shorter length of hospital stay vs Group 2 (average): 4.2 days | Decrease in erythema of skin eruptions sooner than controls (in vivo): 2.8 days | Disappearance of psoriatic rash sooner than controls (in vivo): 7.1 days | Earlier recovery of disease activity than conventional therapy (in vivo): 2 to 3 days | C3 complement [7]: 926 ± 28.4 µg/mL | Ceruloplasmin [7]: 366 ± 11.4 µg/mL | Clotting time (citrated whole blood-recalcified) [7]: 141 ± 2.4 | FDP [7]: 23 ± 1.8 µg/mL | Fibrinogen Concentration [7]: 3.4 ± 0.1 g/L | Fibrinolytic Activity [7]: 200 ± 2.7 min | Kaolin-Cephalin clotting time [7]: 58 ± 0.3 | Orosomucoid [7]: 829 ± 13.2 µg/mL | PT [7]: 23 ± 0.2 | Prealbumin [7]: 357 ± 3.8 µg/mL | Thrombotest [7]: 33 ± 0.5 units | Transferrin [7]: 3.36 ± 0.08 µg/mL | α2-macroglobulin [7]: 2.5 ± 0.01 | Number of Patients Having a Clinical Outcome as: Considerable Improvement (psoriasis Group 1, day 8-10): 18/30 | Number of Patients Having a Clinical Outcome as: Improvement (psoriasis Group 1, day 8-10): 2/30 | Number of Patients Having a Clinical Outcome as: No Improvement (psoriasis Group 1, day 8-10): 3/30 | Number of Patients Having a Clinical Outcome as: Recovery (psoriasis Group 1, day 8-10): 7/30 | Patients with Considerable Improvement (%) (psoriasis Group 1, day 8-10): (60%) | Patients with Improvement (%) (psoriasis Group 1, day 8-10): (7%) | Patients with No Improvement (%) (psoriasis Group 1, day 8-10): (10%) | Patients with Recovery (%) (psoriasis Group 1, day 8-10): (23%) | B-Lymphocytes [8]: 0.53 ± 0.02 ×10^9/L | B-Lymphocytes % Normal Value [8]: (115%) | IgA [8]: 138 ± 6.8 | IgA % Normal Value [8]: (140%) | IgG [8]: 187 ± 1.9 mg/mL | IgG % Normal Value [8]: (140%) | IgM [8]: 193 ± 9.6 | IgM % Normal Value [8]: (152%) | Leukocytes [8]: 9.0 ± 1.4 ×10^9/L | Leukocytes % Normal Value [8]: (155%) | Lymphocytes [8]: 2.5 ± 0.09 ×10^9/L | Lymphocytes % Normal Value [8]: (144%) | T-Lymphocytes [8]: 0.94 ± 0.07 ×10^9/L | T-Lymphocytes % Normal Value [8]: (106%)
